Laboratory results reported in paper PMC4911353, “Pharmacologic Inhibition of Host Phosphodiesterase-4 Improves Isoniazid-Mediated Clearance of Mycobacterium tuberculosis” (Frontiers in Immunology, 2016).

Test system: Mtb-infected mouse lungs
Experiment: Genome-wide lung transcriptome (microarray, IPA network/GO analysis) of Mtb-infected mice
Type: in vivo
Design: SDEGs upregulated in TNF-α interaction network / SDEGs downregulated in TNF-α interaction network: unit not given here
[1] = TNF-a regulon network, Mtb-infected mouse lungs, CC-11050 treated
[2] = lungs of treated infected animals

Work on `CCOc1cc([C@@H](CS(C)(=O)=O)N2Cc3cccc(NC(=O)C4CC4)c3C2=O)ccc1OC` [CC-11050, N-[2-[(1S)-1-(3-ethoxy-4-methoxyphenyl)-2-(methylsulfonyl)ethyl]-2,3-dihydro-3-oxo-1H-isoindol-4-yl]-(9Cl) cyclopropanecarboxamide] yielded a PCK2 expression (TNF-a regulon network) of 0, a PCP4 expression (TNF-a regulon network) of 0 and a PCSK6 expression (TNF-a regulon network) of 0. For the same molecule, the PDCD1 expression (TNF-a regulon network) was 0, the PDE2A expression (TNF-a regulon network) was 0 and the PDE8B expression (TNF-a regulon network) was 0. For the same molecule, the PDGFA expression (TNF-a regulon network) was 0, the PDPN expression (TNF-a regulon network) was -1.216 and the PDZD2 expression (TNF-a regulon network) was 0. It also gave a PECAM1 expression (TNF-a regulon network) of 0, a PENK expression (TNF-a regulon network) of 0 and a PIGR expression (TNF-a regulon network) of 0. For the same molecule, the PKMYT1 expression (TNF-a regulon network) was 0, the PLA2G5 expression (TNF-a regulon network) was 0 and the PLA2G16 expression (TNF-a regulon network) was 0. The PLAUR expression (TNF-a regulon network) was 0, the PLIN1 expression (TNF-a regulon network) was 0 and the PLIN4 expression (TNF-a regulon network) was 0. The PLK3 expression (TNF-a regulon network) was 0, the PLSCR1 expression (TNF-a regulon network) was 0 and the PML expression (TNF-a regulon network) was 0. The PPAP2A expression (TNF-a regulon network) was 1.247, the PPARA expression (TNF-a regulon network) was 0 and the PPARD expression (TNF-a regulon network) was 0. For the same molecule, the PPARG expression (TNF-a regulon network) was 0, the PPARGC1A expression (TNF-a regulon network) was 0 and the PPP1R3C expression (TNF-a regulon network) was 0. The PRKCD expression (TNF-a regulon network) was 0, the PRSS23 expression (TNF-a regulon network) was 0 and the PSMA2 expression (TNF-a regulon network) was 0. The PSMB8 expression (TNF-a regulon network) was 0, the PSMB9 expression (TNF-a regulon network) was 0 and the PSMB10 expression (TNF-a regulon network) was 0. It also gave a PSME1 expression (TNF-a regulon network) of 0, a PSME2 expression (TNF-a regulon network) of 0 and a PXMP2 expression (TNF-a regulon network) of 0. For the same molecule, the PYCARD expression (TNF-a regulon network) was 0, the RAB32 expression (TNF-a regulon network) was 0 and the RARRES2 expression (TNF-a regulon network) was 0. The RASD1 expression (TNF-a regulon network) was 0, the RCAN1 expression (TNF-a regulon network) was 0 and the RCN3 expression (TNF-a regulon network) was 1.2203. For the same molecule, the REL expression (TNF-a regulon network) was 0, the RETN expression (TNF-a regulon network) was 0 and the RFTN1 expression (TNF-a regulon network) was 0. The RFX5 expression (TNF-a regulon network) was 0, the RGS1 expression (TNF-a regulon network) was 0 and the RGS2 expression (TNF-a regulon network) was 0. It also gave an RGS4 expression (TNF-a regulon network) of 0, an RGS5 expression (TNF-a regulon network) of 0 and an RGS7 expression (TNF-a regulon network) of 0. The RGS14 expression (TNF-a regulon network) was 0, the RGS16 expression (TNF-a regulon network) was 0 and the RIPK1 expression (TNF-a regulon network) was 0. For the same molecule, the RIPK2 expression (TNF-a regulon network) was 0, the RNASE2 expression (TNF-a regulon network) was 0 and the RNASE4 expression (TNF-a regulon network) was 0. The RND3 expression (TNF-a regulon network) was -1.216, the RNF149 expression (TNF-a regulon network) was 0 and the ROBO1 expression (TNF-a regulon network) was 1.1568. For the same molecule, the RRM2 expression (TNF-a regulon network) was 0, the RUNX2 expression (TNF-a regulon network) was 0 and the S100A8 expression (TNF-a regulon network) was 0. The SAA2 expression (TNF-a regulon network) was 0, the SAMD4A expression (TNF-a regulon network) was 0 and the SCNN1A expression (TNF-a regulon network) was 0. For the same molecule, the SCNN1B expression (TNF-a regulon network) was 0, the SCNN1G expression (TNF-a regulon network) was 1.211 and the SCUBE1 expression (TNF-a regulon network) was 0. It also gave an SCUBE2 expression (TNF-a regulon network) of 1.331, an SDC2 expression (TNF-a regulon network) of 0 and an SELPLG expression (TNF-a regulon network) of 0. It also gave an SEMA3C expression (TNF-a regulon network) of 1.231, an SEPP1 expression (TNF-a regulon network) of 0 and an SERPINB9 expression (TNF-a regulon network) of 0. For the same molecule, the SERPINE2 expression (TNF-a regulon network) was 0, the SERPINF1 expression (TNF-a regulon network) was 0 and the SHH expression (TNF-a regulon network) was 0. For the same molecule, the SLC14A1 expression (TNF-a regulon network) was 0, the SLC1A2 expression [1] was 0 and the SLC1A3 expression [1] was 0. The SLC1A4 expression [1] was 0, the SLC2A6 expression [1] was 0 and the SLC5A8 expression [1] was 0. The SLC7A8 expression [1] was 0, the SLC20A1 expression [1] was 0 and the SLFN12L expression [1] was 0. It also gave an SMAD3 expression [1] of 0, an SMPD1 expression [1] of 0 and an SMPD2 expression [1] of 0. The SMPDL3A expression [1] was 1.176, the SMURF1 expression [1] was 0 and the SMURF2 expression [1] was 1.4579. The SNCG expression [1] was 0, the SND1 expression [1] was 0 and the SOCS3 expression [1] was 0. The SOD1 expression [1] was 1.19, the SP1 expression [1] was 0 and the SP3 expression [1] was 0. It also gave an SPHK1 expression [1] of 0, an SQSTM1 expression [1] of 0 and an ST3GAL5 expression [1] of 0. The ST3GAL6 expression [1] was 0, the ST6GAL1 expression [1] was 0 and the STARD3 expression [1] was 0. For the same molecule, the STAT4 expression [1] was 0, the STEAP4 expression [1] was 0 and the STMN1 expression [1] was -1.16. The SULT2A1 expression [1] was 0, the SYTL1 expression [1] was 0 and the Slco1a4 expression [1] was 0. For the same molecule, the TAP1 expression [1] was 0, the TAPBP expression [1] was 0 and the TBX21 expression [1] was 0. The TBXAS1 expression [1] was 0, the TDRD7 expression [1] was 0 and the TEK expression [1] was 0. The TF expression [1] was 0, the THY1 expression [1] was 0 and the TIMP2 expression [1] was 0. For the same molecule, the TIMP4 expression [1] was 0, the TJP1 expression [1] was 0 and the TLR7 expression [1] was 0. For the same molecule, the TLR8 expression [1] was 0, the TM4SF1 expression [1] was 0 and the TNF expression [1] was 0. It also gave a TNFAIP2 expression [1] of 0, a TNFAIP3 expression [1] of 0 and a TNFAIP6 expression [1] of 0. The TNFAIP8 expression [1] was 0, the TNFRSF11A expression [1] was -1.191 and the TNFRSF18 expression [1] was 0. The TNFSF10 expression [1] was 0, the TNFSF13B expression [1] was 0 and the TNIP1 expression [1] was 0. The TNN expression [1] was 0, the TPD52L2 expression [1] was 1.132 and the TPT1 expression [1] was 0. For the same molecule, the TRADD expression [1] was 0, the TRAF1 expression [1] was 0 and the TRAF2 expression [1] was 0. The TRAF3 expression [1] was 0, the TRAFD1 expression [1] was 0 and the TREM2 expression [1] was 0. For the same molecule, the TWIST2 expression [1] was 0, the TXNIP expression [1] was 1.1361 and the TYK2 expression [1] was 0. It also gave a Tgtp1/Tgtp2 expression [1] of 0, a UBD expression [1] of 0 and a UBE2H expression [1] of 0. For the same molecule, the UCP1 expression [1] was 0, the VASP expression [1] was 0 and the VCAM1 expression [1] was 0. For the same molecule, the VIPR2 expression [1] was 0, the WHSC1 expression [1] was 0 and the WISP1 expression [1] was 0. The WLS expression [1] was 0, the WNT5A expression [1] was 0 and the WNT7A expression [1] was 0. For the same molecule, the WTAP expression [1] was 0, the ZC3H12A expression [1] was 0 and the ZNF365 expression [1] was 0. For the same molecule, the “Genes downregulated in lung inflammation network” value [2] was “four”, the “Genes upregulated in lung inflammation network” value [2] was “nine” and the “SDEGs downregulated in TNF-α interaction network” value [2] was 8. For the same molecule, the “SDEGs upregulated in TNF-α interaction network” value [2] was 33, the “Il-17 interaction network genes whose expression was dampened” value (lungs of treated infected mice) was 87% and the “Genes significantly differentially expressed in Il-17 interaction network” value (lungs of treated infected mice, HmgB1, Il17F, Entpd1, HspB8) was “four”.
